Measurements reported in BindingDB's records for patent US20240425513 (Carmot Therapeutics, 2024).

Biological target: T1, Ubiquitin carboxyl-terminal hydrolase 28 (Homo sapiens, UniProt Q96RU2)
T1 sequence (Q96RU2 whole entry): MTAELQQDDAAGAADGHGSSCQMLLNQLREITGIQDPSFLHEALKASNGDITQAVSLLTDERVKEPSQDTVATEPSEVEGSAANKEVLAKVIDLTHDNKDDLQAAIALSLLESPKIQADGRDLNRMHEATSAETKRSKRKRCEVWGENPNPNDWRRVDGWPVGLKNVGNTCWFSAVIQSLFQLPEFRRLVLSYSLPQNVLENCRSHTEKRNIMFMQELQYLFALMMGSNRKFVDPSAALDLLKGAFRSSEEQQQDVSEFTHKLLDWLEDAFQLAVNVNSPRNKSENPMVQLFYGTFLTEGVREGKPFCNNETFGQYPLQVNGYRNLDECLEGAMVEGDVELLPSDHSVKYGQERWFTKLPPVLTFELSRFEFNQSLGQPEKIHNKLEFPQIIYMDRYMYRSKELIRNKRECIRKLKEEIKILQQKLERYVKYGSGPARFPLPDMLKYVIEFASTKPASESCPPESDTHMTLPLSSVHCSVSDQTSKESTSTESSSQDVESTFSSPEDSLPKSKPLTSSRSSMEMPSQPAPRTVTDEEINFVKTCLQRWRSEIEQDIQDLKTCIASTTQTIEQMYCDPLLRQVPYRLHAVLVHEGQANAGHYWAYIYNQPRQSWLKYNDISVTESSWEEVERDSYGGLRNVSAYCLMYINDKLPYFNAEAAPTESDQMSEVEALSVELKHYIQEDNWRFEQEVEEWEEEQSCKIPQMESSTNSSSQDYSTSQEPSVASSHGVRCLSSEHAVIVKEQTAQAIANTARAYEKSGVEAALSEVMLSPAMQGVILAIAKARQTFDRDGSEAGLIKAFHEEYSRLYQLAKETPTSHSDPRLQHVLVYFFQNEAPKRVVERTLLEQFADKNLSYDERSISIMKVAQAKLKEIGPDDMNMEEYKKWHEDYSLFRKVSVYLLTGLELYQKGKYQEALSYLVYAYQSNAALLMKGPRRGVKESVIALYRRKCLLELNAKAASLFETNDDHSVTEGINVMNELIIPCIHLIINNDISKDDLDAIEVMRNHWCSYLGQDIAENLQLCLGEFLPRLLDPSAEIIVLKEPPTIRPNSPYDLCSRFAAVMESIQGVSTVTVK
Assay: Ubiquitin-Rhodamine 110 Assay
Description: Enzyme (His6 USP28, BostonBiochem, #E-570) concentration and incubation times were optimized for the maximal signal to background while maintaining the initial velocity conditions at a fixed substrate concentration. […] 2 μl of 4× enzyme was added to assay plates (pre stamped with compound) and incubated for 2 h at room temperature. […] of 4× substrate was subsequently added to the assay plates and incubated for 2 h at room temperature.

- IC50: > 1000 nM
Compound: CC(Oc1ccc(-c2nc(Cc3cccc(Cl)c3)no2)cc1)C(=O)N[C@@H]1C[C@@H](C)N(C#N)C1 (stereo partly specified) [US20240425513, Example 11]
